Data reported in PMC2330188 (Acta Crystallographica Section F: Structural Biology and …, 2007).

Biological target: 5-formyltetrahydrofolate cyclo-ligase (BA4489) (Bacillus anthracis, UniProt A0A6L8PZ12)
Sequence (A0A6L8PZ12 2-192 limits assumed): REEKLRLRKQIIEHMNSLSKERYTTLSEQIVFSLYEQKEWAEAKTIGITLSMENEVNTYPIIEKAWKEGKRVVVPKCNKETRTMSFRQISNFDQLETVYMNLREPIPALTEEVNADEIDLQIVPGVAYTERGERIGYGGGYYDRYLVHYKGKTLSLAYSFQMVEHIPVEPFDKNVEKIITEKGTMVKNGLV

## O=P(O)(O)O [phosphate]
  X-ray crystal structure, 1.6 Å: hydrolysed to ADP and inorganic phosphate
